Experimental data as given in PubChem BioAssay (NCI).
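Cultured in 96-well plates, cells were exposed to test compound for 48 hours across five concentrations. Definition used: TGI = concentration required for complete inhibition of growth.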

Assays:
Test in all cases: growth of human tumour cells (NCI), 48 h
786-0 renal = test system: 786-0 renal
A498 renal = test system: A498 renal
A549 NSCLC = test system: A549 NSCLC
ACHN renal = test system: ACHN renal
CAKI-1 renal = test system: CAKI-1 renal
COLO 205 colon = test system: COLO 205 colon
DLD-1 colon = test system: DLD-1 colon
DMS 114 small cell lung = test system: DMS 114 small cell lung
DMS 273 small cell lung = test system: DMS 273 small cell lung
EKVX NSCLC = test system: EKVX NSCLC
HCT-116 colon = test system: HCT-116 colon
HCT-15 colon = test system: HCT-15 colon
HL-60(TB) leukemia = test system: HL-60(TB) leukemia
HOP-18 NSCLC = test system: HOP-18 NSCLC
HOP-62 NSCLC = test system: HOP-62 NSCLC
HOP-92 NSCLC = test system: HOP-92 NSCLC
HT29 colon = test system: HT29 colon
IGROV1 ovarian = test system: IGROV1 ovarian
K-562 leukemia = test system: K-562 leukemia
KM12 colon = test system: KM12 colon
LOX IMVI melanoma = test system: LOX IMVI melanoma
LXFL 529 NSCLC = test system: LXFL 529 NSCLC
M14 melanoma = test system: M14 melanoma
M19-MEL melanoma = test system: M19-MEL melanoma
MALME-3M melanoma = test system: MALME-3M melanoma
MOLT-4 leukemia = test system: MOLT-4 leukemia
NCI-H23 lung = test system: NCI-H23 lung
NCI-H460 lung = test system: NCI-H460 lung
NCI-H522 lung = test system: NCI-H522 lung
OVCAR-3 ovarian = test system: OVCAR-3 ovarian
OVCAR-4 ovarian = test system: OVCAR-4 ovarian
OVCAR-5 ovarian = test system: OVCAR-5 ovarian
OVCAR-8 ovarian = test system: OVCAR-8 ovarian
RPMI-8226 leukemia = test system: RPMI-8226 leukemia
RXF 393 renal = test system: RXF 393 renal
RXF-631 renal = test system: RXF-631 renal
SF-268 CNS = test system: SF-268 CNS
SF-295 CNS = test system: SF-295 CNS
SF-539 CNS = test system: SF-539 CNS
SK-MEL-2 melanoma = test system: SK-MEL-2 melanoma
SK-MEL-28 melanoma = test system: SK-MEL-28 melanoma
SK-MEL-5 melanoma = test system: SK-MEL-5 melanoma
SK-OV-3 ovarian = test system: SK-OV-3 ovarian
SN12C renal = test system: SN12C renal
SNB-19 CNS = test system: SNB-19 CNS
SNB-75 CNS = test system: SNB-75 CNS
SNB-78 CNS = test system: SNB-78 CNS
SW-620 colon = test system: SW-620 colon
U251 CNS = test system: U251 CNS
UACC-257 melanoma = test system: UACC-257 melanoma
UACC-62 melanoma = test system: UACC-62 melanoma
UO-31 renal = test system: UO-31 renal
XF 498 CNS = test system: XF 498 CNS
CCRF-CEM leukemia = test system: CCRF-CEM leukemia
KM20L2 colon = test system: KM20L2 colon
NCI-H226 lung = test system: NCI-H226 lung
SR leukemia = test system: SR leukemia
TK-10 renal = test system: TK-10 renal
HCC-2998 colon = test system: HCC-2998 colon

## O=C1NC2C(O)CCCCC2C12CCCCC2 (stereo not drawn)
786-0 renal
  TGI: > 100 µM
A498 renal
  TGI: > 100 µM
A549 NSCLC
  TGI: > 100 µM
ACHN renal
  TGI: > 100 µM
CAKI-1 renal
  TGI: > 100 µM
COLO 205 colon
  TGI: > 100 µM
DLD-1 colon
  TGI: > 100 µM
DMS 114 small cell lung
  TGI: > 100 µM
DMS 273 small cell lung
  TGI: > 100 µM
EKVX NSCLC
  TGI: > 100 µM
HCT-116 colon
  TGI: > 100 µM
HCT-15 colon
  TGI: > 100 µM
HL-60(TB) leukemia
  TGI: > 100 µM
HOP-18 NSCLC
  TGI: > 100 µM
HOP-62 NSCLC
  TGI: > 100 µM
HOP-92 NSCLC
  TGI: > 100 µM
HT29 colon
  TGI: > 100 µM
IGROV1 ovarian
  TGI: > 100 µM
K-562 leukemia
  TGI: > 100 µM
KM12 colon
  TGI: > 100 µM
LOX IMVI melanoma
  TGI: > 100 µM
LXFL 529 NSCLC
  TGI: > 100 µM
M14 melanoma
  TGI: > 100 µM
M19-MEL melanoma
  TGI: > 100 µM
MALME-3M melanoma
  TGI: > 100 µM
MOLT-4 leukemia
  TGI: > 100 µM
NCI-H23 lung
  TGI: > 100 µM
NCI-H460 lung
  TGI: > 100 µM
NCI-H522 lung
  TGI: > 100 µM
OVCAR-3 ovarian
  TGI: > 100 µM
OVCAR-4 ovarian
  TGI: > 100 µM
OVCAR-5 ovarian
  TGI: > 100 µM
OVCAR-8 ovarian
  TGI: > 100 µM
RPMI-8226 leukemia
  TGI: > 100 µM
RXF 393 renal
  TGI: > 100 µM
RXF-631 renal
  TGI: > 100 µM
SF-268 CNS
  TGI: > 100 µM
SF-295 CNS
  TGI: > 100 µM
SF-539 CNS
  TGI: > 100 µM
SK-MEL-2 melanoma
  TGI: > 100 µM
SK-MEL-28 melanoma
  TGI: > 100 µM
SK-MEL-5 melanoma
  TGI: > 100 µM
SK-OV-3 ovarian
  TGI: > 100 µM
SN12C renal
  TGI: > 100 µM
SNB-19 CNS
  TGI: > 100 µM
SNB-75 CNS
  TGI: > 100 µM
SNB-78 CNS
  TGI: > 100 µM
SW-620 colon
  TGI: > 100 µM
U251 CNS
  TGI: > 100 µM
UACC-257 melanoma
  TGI: > 100 µM
UACC-62 melanoma
  TGI: > 100 µM
UO-31 renal
  TGI: > 100 µM
XF 498 CNS
  TGI: > 100 µM

## CC(C)(C)N=NC(C)(C)N=C=O
786-0 renal
  TGI: > 100 µM
A498 renal
  TGI: > 100 µM
A549 NSCLC
  TGI: > 100 µM
ACHN renal
  TGI: > 100 µM
CAKI-1 renal
  TGI: > 100 µM
CCRF-CEM leukemia
  TGI: > 100 µM
COLO 205 colon
  TGI: > 100 µM
DLD-1 colon
  TGI: > 100 µM
DMS 114 small cell lung
  TGI: > 100 µM
DMS 273 small cell lung
  TGI: > 100 µM
EKVX NSCLC
  TGI: > 100 µM
HCT-116 colon
  TGI: > 100 µM
HCT-15 colon
  TGI: > 100 µM
HL-60(TB) leukemia
  TGI: > 100 µM
HOP-18 NSCLC
  TGI: > 100 µM
HOP-62 NSCLC
  TGI: > 100 µM
HOP-92 NSCLC
  TGI: > 100 µM
HT29 colon
  TGI: > 100 µM
IGROV1 ovarian
  TGI: > 100 µM
K-562 leukemia
  TGI: > 100 µM
KM12 colon
  TGI: > 100 µM
KM20L2 colon
  TGI: > 100 µM
LOX IMVI melanoma
  TGI: > 100 µM
LXFL 529 NSCLC
  TGI: > 100 µM
M14 melanoma
  TGI: > 100 µM
M19-MEL melanoma
  TGI: > 100 µM
MALME-3M melanoma
  TGI: > 100 µM
MOLT-4 leukemia
  TGI: > 100 µM
NCI-H226 lung
  TGI: > 100 µM
NCI-H23 lung
  TGI: > 100 µM
NCI-H460 lung
  TGI: > 100 µM
NCI-H522 lung
  TGI: > 100 µM
OVCAR-3 ovarian
  TGI: > 100 µM
OVCAR-4 ovarian
  TGI: > 100 µM
OVCAR-5 ovarian
  TGI: > 100 µM
OVCAR-8 ovarian
  TGI: > 100 µM
RPMI-8226 leukemia
  TGI: > 100 µM
RXF 393 renal
  TGI: > 100 µM
SF-268 CNS
  TGI: > 100 µM
SF-295 CNS
  TGI: > 100 µM
SF-539 CNS
  TGI: > 100 µM
SK-MEL-2 melanoma
  TGI: > 100 µM
SK-MEL-28 melanoma
  TGI: > 100 µM
SK-MEL-5 melanoma
  TGI: > 100 µM
SK-OV-3 ovarian
  TGI: > 100 µM
SN12C renal
  TGI: > 100 µM
SNB-19 CNS
  TGI: > 100 µM
SNB-75 CNS
  TGI: > 100 µM
SNB-78 CNS
  TGI: > 100 µM
SR leukemia
  TGI: > 100 µM
SW-620 colon
  TGI: > 100 µM
TK-10 renal
  TGI: > 100 µM
U251 CNS
  TGI: > 100 µM
UACC-257 melanoma
  TGI: > 100 µM
UACC-62 melanoma
  TGI: > 100 µM
UO-31 renal
  TGI: > 100 µM
XF 498 CNS
  TGI: > 100 µM

## COC(=O)CC[C@]12C[C@]13CC[C@]1(C)C4C(C)C[C@]5(CC(C)C(=O)O5)OC4CC1(C)C3CCC2C(C)(C)O (stereo partly drawn)
786-0 renal
  TGI: > 100 µM
A498 renal
  TGI: > 100 µM
A549 NSCLC
  TGI: > 100 µM
ACHN renal
  TGI: > 100 µM
COLO 205 colon
  TGI: > 100 µM
DLD-1 colon
  TGI: > 100 µM
DMS 114 small cell lung
  TGI: > 100 µM
DMS 273 small cell lung
  TGI: > 100 µM
EKVX NSCLC
  TGI: > 100 µM
HCC-2998 colon
  TGI: > 100 µM
HCT-116 colon
  TGI: > 100 µM
HCT-15 colon
  TGI: > 100 µM
HL-60(TB) leukemia
  TGI: 66.1 µM
HOP-18 NSCLC
  TGI: > 100 µM
HOP-62 NSCLC
  TGI: > 100 µM
HOP-92 NSCLC
  TGI: 65.1 µM
HT29 colon
  TGI: > 100 µM
IGROV1 ovarian
  TGI: > 100 µM
K-562 leukemia
  TGI: > 100 µM
KM12 colon
  TGI: > 100 µM
KM20L2 colon
  TGI: > 100 µM
LOX IMVI melanoma
  TGI: > 100 µM
LXFL 529 NSCLC
  TGI: > 100 µM
M14 melanoma
  TGI: > 100 µM
M19-MEL melanoma
  TGI: > 100 µM
MALME-3M melanoma
  TGI: > 100 µM
NCI-H23 lung
  TGI: > 100 µM
NCI-H460 lung
  TGI: > 100 µM
NCI-H522 lung
  TGI: > 100 µM
OVCAR-3 ovarian
  TGI: > 100 µM
OVCAR-4 ovarian
  TGI: > 100 µM
OVCAR-5 ovarian
  TGI: > 100 µM
OVCAR-8 ovarian
  TGI: > 100 µM
RPMI-8226 leukemia
  TGI: 98.7 µM
RXF 393 renal
  TGI: > 100 µM
SF-268 CNS
  TGI: > 100 µM
SF-295 CNS
  TGI: > 100 µM
SF-539 CNS
  TGI: > 100 µM
SK-MEL-2 melanoma
  TGI: 82.6 µM
SK-MEL-28 melanoma
  TGI: > 100 µM
SK-MEL-5 melanoma
  TGI: > 100 µM
SK-OV-3 ovarian
  TGI: > 100 µM
SN12C renal
  TGI: > 100 µM
SNB-19 CNS
  TGI: > 100 µM
SNB-75 CNS
  TGI: > 100 µM
SNB-78 CNS
  TGI: > 100 µM
SR leukemia
  TGI: > 100 µM
SW-620 colon
  TGI: > 100 µM
TK-10 renal
  TGI: > 100 µM
U251 CNS
  TGI: > 100 µM
UACC-257 melanoma
  TGI: > 100 µM
UO-31 renal
  TGI: > 100 µM
XF 498 CNS
  TGI: 87.6 µM
